US20090318468A1, “PYRAZOLE COMPOUNDS 436” (AstraZeneca AB, priority 2008, published 2009)
Several values for one entry are separate records, joined by “and”; a condition that tells them apart may be missing. Equal entries are not always repeated.

Target: T1, FGFR1 IIIc (Homo sapiens, UniProt P11362)
T1 construct: expressed in transfected cells; host or cells: Cos-1
Assay: Cell FGFR1 (ECHO): inhibition of transiently expressed FGFR1 IIIc phosphorylation in Cos-1 cells
Type: cell-based
Settings: Cos-1 cells transiently expressing FGFR1 IIIc, 1 hour incubation; read-out: IC50 (inhibition of phosphorylated FGFR1)
Text: Cell FGFR1 (ECHO)—Cell Based Inhibition of Transiently Expressed FGFR1 IIIc Phosphorylation via use of ECHO Technology (Measured using Phospho-Specific Primary and Fluorescent Secondary Antibodies).
This assay is designed to detect inhibitors of transiently expressed FGFR1 phosphorylation by antibody staining of fixed cells detected using ArrayScan technology.
Cos-1 cells were routinely passaged in DMEM (Gibco BRL, 41966) plus 3% foetal calf serum (FCS), 1% L-glutamine (Gibco BRL, 25030) to a confluence of 80%. To undertake the assay, Cos-1 cells were harvested at 90-95% confluence for cell transfection. For each 96-well plate, 24 μl Lipofectamine 2000 was added to 809 ul OptiMEM and incubated at room temperature for 5 minutes. For each 96 well plate, 20 ug 3′ FLAG tagged FGFR1/pcDNA3.1 (In-house clone15, MSD 4793) was diluted with OptiMEM to a total volume of 833 μl. Equal volumes of DNA and Lipofectamine 2000 were combined (DNA: Lipid=1:1.2 ratio) and incubated at room temperature for 20 minutes.
The harvested Cos-1 cells are counted using a coulter counter and diluted further with 1% FCS/DMEM to 2.5×10^5 cells/ml. For each 96-well, 8.33 ml cells were required. […]
Media was removed from the wells using vacuum aspiration; cells were fixed by adding 50 μl of 100% methanol to each well and incubated at room temperature for 20 minutes. […] The plates were read on an Arrayscan (Cellomics). […]

T1 sequence (P11362 22-822): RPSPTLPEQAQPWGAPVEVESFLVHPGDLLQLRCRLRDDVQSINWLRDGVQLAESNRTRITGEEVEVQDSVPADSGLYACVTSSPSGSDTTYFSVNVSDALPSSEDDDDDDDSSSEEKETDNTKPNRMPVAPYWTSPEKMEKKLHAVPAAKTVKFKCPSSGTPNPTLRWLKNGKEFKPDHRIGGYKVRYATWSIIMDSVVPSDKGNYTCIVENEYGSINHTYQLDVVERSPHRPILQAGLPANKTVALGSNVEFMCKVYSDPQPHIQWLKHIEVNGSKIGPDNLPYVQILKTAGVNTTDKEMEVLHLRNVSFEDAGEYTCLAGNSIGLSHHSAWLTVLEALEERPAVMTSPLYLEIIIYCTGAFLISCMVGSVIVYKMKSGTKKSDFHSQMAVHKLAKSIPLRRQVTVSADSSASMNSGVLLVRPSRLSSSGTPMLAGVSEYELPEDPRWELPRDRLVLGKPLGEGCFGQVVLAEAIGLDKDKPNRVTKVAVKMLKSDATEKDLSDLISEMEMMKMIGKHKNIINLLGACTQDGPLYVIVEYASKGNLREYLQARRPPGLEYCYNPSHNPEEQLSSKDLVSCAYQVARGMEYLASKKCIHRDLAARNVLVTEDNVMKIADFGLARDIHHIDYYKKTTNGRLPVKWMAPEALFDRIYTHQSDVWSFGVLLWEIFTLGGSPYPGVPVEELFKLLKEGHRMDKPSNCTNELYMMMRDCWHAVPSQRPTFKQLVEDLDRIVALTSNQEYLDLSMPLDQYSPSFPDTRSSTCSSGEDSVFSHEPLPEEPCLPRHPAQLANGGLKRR

- IC50: < 10 nM and 1.1 nM and 2.2 nM and 4.8 nM
SMILES: COc1cc(CCc2cc(NC(=O)c3ccc(N4CCN(C)[C@H](C)C4)cc3)[nH]n2)cc(OC)c1 [Example 1b, (R)—N-(3-(3,5-Dimethoxyphenethyl)-1H-pyrazol-5-yl)-4-(3,4-dimethylpiperazin-1-yl)benzamide]
